Measurements reported in ChEMBL document CHEMBL2401610, “N-Benzyloxycarbonyl-S-(2,4-dinitrophenyl)glutathione dibutyl diester is inhibitory to melarsoprol resistant cell lines overexpressing the T. bruceiMRPA transporter” (Bioorg Med Chem Lett, 2013).

Columns and labels:
[1] = tested on: Trypanosoma brucei brucei; test: Antitrypanosomal activity against bloodstream form of Trypanosoma brucei brucei expressing TbMRPA protein after 3 days by microplate assay; type: functional, organism-based; details: 72 h
[2] = tested on: Trypanosoma brucei brucei; test: Resistant factor, ratio of IC50 for bloodstream form of Trypanosoma brucei brucei expressing TbMRPA protein to IC50 for bloodstream form of wild type Trypanosoma brucei 247; type: functional
[3] = tested on: Trypanosoma brucei brucei; test: Antitrypanosomal activity against bloodstream form of wild type Trypanosoma brucei brucei 247 after 3 days by microplate assay; type: functional, organism-based; details: Trypanosoma brucei, 247, 72 h

Row | Structure (SMILES) | IC50 [1] | Ratio IC50 [2] | IC50 [3]
1 | CCCCOC(=O)CNC(=O)[C@H](CSc1ccc([N+](=O)[O-])cc1[N+](=O)[O-])NC(=O)CC[C@H](NC(=O)OCc1ccccc1)C(=O)OCCCC | 6.5 µM | 1.4 | 4.5 µM
2 | COC(=O)CNC(=O)[C@H](CSC(=O)c1ccc(Br)cc1)NC(=O)CC[C@H](NC(=O)OCc1ccccc1)C(=O)OC | 58 µM | 16.6 | 3.5 µM
3 | O=C(O)CNC(=O)[C@H](CSC(=O)c1ccc(Br)cc1)NC(=O)CC[C@H](NC(=O)OCc1ccccc1)C(=O)O | 785 µM | 182 | 4.3 µM
4 | N[C@@H](CCC(=O)N[C@@H](CSC(=O)c1ccc(Br)cc1)C(=O)NCC(=O)O)C(=O)O | 163 µM | 1.8 | 87.5 µM
5 | Nc1nc(N)nc(Nc2ccc([As]3SCC(CO)S3)cc2)n1 (stereo not drawn) [MELARSOPROL] | – | 10 | –
